PubChem BioAssay AID743303 (Broad Institute, 2014)
Values joined by “and” are separate entries in the source; they are usually repeats but may differ in a detail not shown here. Equal entries are not always repeated. Active and inactive are the calls of the source. The rule behind the calls is not given here.

Tested on: not listed separately
Assay: inducers of C. neoformans cell lysis, dose response, AK release, plate reader, dry powder, set 2 (AID 743303)
Conditions: C. neoformans cell lysis, adenylate kinase release; at 15 µM (top of the series)

Which cell lysis activity does the source give for O=S(=O)(c1ccc(OCCn2cnc3ccccc32)cc1)N1CCOCC1 here?
The cell lysis activity was -15% (inactive).

Which cell lysis activity does the source give for Clc1ccc(OCCn2cnc3ccccc32)c(Cl)c1 here?
Its cell lysis activity is -34% (inactive).

With COc1cccc(OCCn2cnc3ccccc32)c1 as the compound, how does the cell lysis activity read?
The cell lysis activity was -2.74% (inactive).

With COc1cc(C)ccc1OCCn1cnc2ccccc21 as the compound, how does the cell lysis activity read?
The cell lysis activity was -57.7% (inactive).

For CS(=O)(=O)c1ccc(OCCn2cnc3ccccc32)cc1, which cell lysis activity is on record?
The cell lysis activity was -28.4% (inactive).

Which cell lysis activity does the source give for CSc1nc2ccccc2n1CCOc1ccc(C)cc1 here?
Its cell lysis activity is 16.4% (inactive).

Which cell lysis activity does the source give for Cc1ccc(C(C)C)c(OCCn2c(NC#N)nc3ccccc32)c1 here?
Its cell lysis activity is -24% (inactive).

With COc1ccccc1OCCn1c(=S)[nH]c2ccccc21 as the compound, how does the cell lysis activity read?
The cell lysis activity was -4.68% (inactive).

With Fc1ccc(OCCn2c(=S)[nH]c3ccccc32)cc1 as the compound, how does the cell lysis activity read?
Its cell lysis activity is -65.4% (inactive).

Which cell lysis activity does the source give for CSc1nc2ccccc2n1CCOc1cc(C)ccc1C(C)C here?
The cell lysis activity was -20.1% (inactive).

Which cell lysis activity does the source give for CC(C)Oc1ccc(OCCn2c(=S)[nH]c3ccccc32)cc1 here?
Its cell lysis activity is 26.4% (inactive).

For Cc1ccc2c(c1)[nH]c(=S)n2CCOc1ccccc1, which cell lysis activity is on record?
Its cell lysis activity is 10.9% (inactive).

With c1ccc2c(c1)ncn2CCOc1ccc2c(c1)CCC2 as the compound, how does the cell lysis activity read?
Its cell lysis activity is 33.8% (inactive).

With c1ccc(-c2ccc(OCCn3cnc4ccccc43)cc2)cc1 as the compound, how does the cell lysis activity read?
The cell lysis activity was 6.2% (inactive).

Which cell lysis activity does the source give for Cc1ccc(C(C)C)c(OCCn2c(=O)[nH]c3ccccc32)c1 here?
The cell lysis activity was -24.5% (inactive).

Tested on: C. neoformans cell lysis, adenylate kinase release
Assay: as above
Conditions: not given

Which AC40 does the source give for Cc1cc2ncn(CCOc3ccccc3C)c2cc1C here?
The AC40 was 2.42 µM.

Which AC40 does the source give for Cc1cccc(OCCn2c(=S)[nH]c3ccccc32)c1 here?
Its AC40 is 1.38 µM.

Which AC40 does the source give for COc1ccccc1OCCn1c(SC)nc2ccccc21 here?
Its AC40 is > 15 µM (inactive).

For Clc1ccccc1OCCn1cnc2ccccc21, which AC40 is on record?
Its AC40 is > 15 µM (inactive).

With FC(F)(F)c1cccc(OCCn2cnc3ccccc32)c1 as the compound, how does the AC40 read?
Its AC40 is > 15 µM (inactive).

Which AC40 does the source give for Cc1cccc(OCCn2c(=S)[nH]c3c(F)cccc32)c1 here?
The AC40 was 3.23 µM and 1.51 µM.

With CC(C)(C)c1ccc(OCCn2cnc3ccccc32)c(Cl)c1 as the compound, how does the AC40 read?
Its AC40 is > 15 µM (inactive).

For CC(C)(C)c1ccc(OCCn2cnc3ccccc32)cc1, which AC40 is on record?
The AC40 was 1.46 µM.

Which AC40 does the source give for Cc1cc2ncn(CCOc3ccccc3)c2cc1C here?
The AC40 was 10.1 µM.

Which AC40 does the source give for Fc1ccc2c(c1)[nH]c(=S)n2CCOc1ccccc1 here?
Its AC40 is 2.83 µM and 6.57 µM.

Which AC40 does the source give for Cc1cc2ncn(CCOc3ccc4c(c3)CCC4)c2cc1C here?
Its AC40 is 4.6 µM.

For CC(C)(C)c1ccc(OCCn2c(CO)nc3ccccc32)cc1, which AC40 is on record?
The AC40 was 14.2 µM.

For NCC(=O)Nc1ccc(-n2nc(C(F)(F)F)cc2-c2ccc3c(ccc4ccccc43)c2)cc1, which AC40 is on record?
Its AC40 is 5 µM.

With Cc1ccc(OCCn2cnc3cc(C)c(C)cc32)cc1 as the compound, how does the AC40 read?
Its AC40 is 1.94 µM.

With S=c1[nH]c2cc(Cl)ccc2n1CCOc1ccccc1 as the compound, how does the AC40 read?
Its AC40 is 2.57 µM.

Which AC40 does the source give for CSc1nc2ccccc2n1CCOc1ccccc1 here?
Its AC40 is > 15 µM (inactive).

Which AC40 does the source give for CCSc1nc2ccccc2n1CCOc1ccccc1 here?
The AC40 was > 15 µM (inactive).

With Fc1cccc2c1[nH]c(=S)n2CCOc1ccccc1 as the compound, how does the AC40 read?
Its AC40 is 13.8 µM.

For COCc1nc2ccccc2n1CCOc1ccc(C(C)(C)C)cc1, which AC40 is on record?
Its AC40 is > 15 µM (inactive).

With c1ccc(COc2ccc(OCCn3cnc4ccccc43)cc2)cc1 as the compound, how does the AC40 read?
Its AC40 is > 15 µM (inactive).

With CCCc1nc2ccccc2n1CCOc1ccccc1 as the compound, how does the AC40 read?
The AC40 was 7.46 µM.

For CC(C)c1ccccc1OCCn1c(=S)[nH]c2ccccc21, which AC40 is on record?
The AC40 was 1.25 µM.

For Cc1cccc(OCCn2c(=S)[nH]c3ccc(C(F)(F)F)cc32)c1, which AC40 is on record?
Its AC40 is > 15 µM (inactive).

With Cc1ccc(OCCn2cnc3ccccc32)c(C)c1 as the compound, how does the AC40 read?
Its AC40 is > 15 µM (inactive).

With Cc1ccccc1OCCn1cnc2ccccc21 as the compound, how does the AC40 read?
Its AC40 is 15 µM.

With CC(C)Oc1ccc(OCCn2cnc3ccccc32)cc1 as the compound, how does the AC40 read?
Its AC40 is > 15 µM (inactive).

With Cc1ccc(C(C)C)c(OCCn2c(N)nc3ccccc32)c1 as the compound, how does the AC40 read?
The AC40 was > 15 µM (inactive).

With Cc1ccc(C(C)C)c(OCCn2c(=S)[nH]c3ccccc32)c1 as the compound, how does the AC40 read?
The AC40 was 9.17 µM.

Which AC40 does the source give for COc1ccc(OCCn2cnc3ccccc32)cc1 here?
The AC40 was > 15 µM (inactive).

With Cc1cccc(OCCn2cnc3ccccc32)c1 as the compound, how does the AC40 read?
Its AC40 is 12.8 µM.

Which AC40 does the source give for Cc1ccc(OCCn2cnc3ccccc32)c(C(C)C)c1 here?
The AC40 was 4.09 µM.

With CC(C)c1ccccc1NCCn1c(=S)[nH]c2ccccc21 as the compound, how does the AC40 read?
The AC40 was 3.78 µM.

For Cc1cccc(OCCn2c(=S)[nH]c3cc(F)ccc32)c1, which AC40 is on record?
Its AC40 is 2.42 µM and 3.03 µM.

With OCc1nc2ccccc2n1CCOc1ccccc1 as the compound, how does the AC40 read?
Its AC40 is > 15 µM (inactive).

With CCc1nc2ccccc2n1CCOc1ccccc1 as the compound, how does the AC40 read?
Its AC40 is > 15 µM (inactive).

With CCCCc1nc2ccccc2n1CCOc1ccccc1 as the compound, how does the AC40 read?
The AC40 was 6.27 µM.

With Clc1ccc(OCCn2cnc3ccccc32)cc1 as the compound, how does the AC40 read?
The AC40 was > 15 µM (inactive).

With S=c1[nH]c2cccc(Cl)c2n1CCOc1ccccc1 as the compound, how does the AC40 read?
The AC40 was 2.83 µM.

For Cc1ccc(C(C)C)c(OCCn2c(CO)nc3ccccc32)c1, which AC40 is on record?
The AC40 was > 15 µM (inactive).

Which AC40 does the source give for CC(C)Oc1cccc(OCCn2cnc3ccccc32)c1 here?
Its AC40 is > 15 µM (inactive).
